Laboratory results from patent US11298412B2, “Sphingoid compounds for prophylaxis and/or therapy of coronaviridae infection” (priority 2020, dated 2022).
Entries after “also recorded” stand apart in the source; their conditions may differ.

Tests used:
[1] = tested on: lymphocytic choriomeningitis virus (LCMV); assay type: cell-based, LCMV strain WE
[2] = tested on: pp-VSV-SARS-CoV-2 spike; assay type: cell-based
[3] = tested on: pp-VSV-SARS-CoV-2; experiment: Adhesion of pp-VSV-SARS-CoV-2 on Vero cells, flow cytometry with anti-spike S1; assay type: cell-based; settings: 20 minutes infection in presence of lipid
[4] = tested on: rhinovirus 14 (RV14); experiment: RV14 infection of freshly isolated human epithelial cells, Hela cytotoxicity readout; assay type: cell-based; settings: 10 μM or 20 μM, 24 hrs
Description: (§1) 10^4 PFU of Rhinovirus 2 or 14 (RV2, RV14) were incubated with freshly isolated human epithelial cells for 24 hrs in the presence of 10 μM or 20 μM sphingosine (SPH) or the corresponding concentration of the solvent octylglucopyranoside (OGP), the cells were pelleted, supernatants completely removed, the cell pellets resuspended in PBS and added to Hela cells. Cells were incubated for 3 days and cytotoxicity as measurement for virus titers was determined. Shown is the mean±SD, n=4, *p<0.001 ANOVA.

[5] = Surface sphingosine in mouse nasal mucosa after intranasal application, in situ sphingosine kinase assay; assay type: in vivo; settings: wild-type mice; 10 μL of 10 μM or 100 μM into the nostrils; 1, 4 and 8 hrs; without washing
Description: Sphingosine (SPH) was applied into the nose of wild-type mice and the concentration of sphingosine on the epithelial cell surface was determined after 1, 4 and 8 hrs (a.i.: after injection of sphingosine). To this end, 10 μL of a 10 μM or a 100 μM sphingosine solution was applied into the nostrils of wild-type mice. Controls received the solvent, i.e. octylglucopyranoside at the same concentration used when sphingosine was applied, or were left untreated. Mice were slightly and very briefly anesthetized with ether. For the intranasal application we used a blunt-end 30 g needle that was covered with a thin plastic film. The blunt-ended needle was inserted into the nostrils approximately 2 mm. Mice were sacrificed after the indicated time, the nasal bone was removed, placed on a 30° C. pre-warmed plastic plate and an area of 2 mm×2 mm was immediately incubated with 0.001 units of sphingosine kinase 1 (#6068-SK-010, R&D) in 4 μl of 150 mM sodium acetate (pH 7.4), 1 μM ATP, and 10 μCi [^32P]γATP/sample. Controls were incubated with the same buffer without sphingosine kinase or were left untreated. […] The TLC plates were analyzed with a phosphoimager. Surface sphingosine levels were determined with a standard curve of C18-sphingosine. […]

[6] = biological target: T1, receptor binding domain of spike S1 / ACE2 (Homo sapiens, UniProt Q9BYF1); experiment: Binding of recombinant RBD of spike S1 to immobilized Fc-ACE2, western blot
T1 construct: purchased Abcam (Fc-ACE2); Sino Biologicals (RBD-spike) ab273687 (Fc-ACE2); MA FE2702B, #40150-R007 (as printed for RBD-spike)
T1 sequence (Q9BYF1 18-740): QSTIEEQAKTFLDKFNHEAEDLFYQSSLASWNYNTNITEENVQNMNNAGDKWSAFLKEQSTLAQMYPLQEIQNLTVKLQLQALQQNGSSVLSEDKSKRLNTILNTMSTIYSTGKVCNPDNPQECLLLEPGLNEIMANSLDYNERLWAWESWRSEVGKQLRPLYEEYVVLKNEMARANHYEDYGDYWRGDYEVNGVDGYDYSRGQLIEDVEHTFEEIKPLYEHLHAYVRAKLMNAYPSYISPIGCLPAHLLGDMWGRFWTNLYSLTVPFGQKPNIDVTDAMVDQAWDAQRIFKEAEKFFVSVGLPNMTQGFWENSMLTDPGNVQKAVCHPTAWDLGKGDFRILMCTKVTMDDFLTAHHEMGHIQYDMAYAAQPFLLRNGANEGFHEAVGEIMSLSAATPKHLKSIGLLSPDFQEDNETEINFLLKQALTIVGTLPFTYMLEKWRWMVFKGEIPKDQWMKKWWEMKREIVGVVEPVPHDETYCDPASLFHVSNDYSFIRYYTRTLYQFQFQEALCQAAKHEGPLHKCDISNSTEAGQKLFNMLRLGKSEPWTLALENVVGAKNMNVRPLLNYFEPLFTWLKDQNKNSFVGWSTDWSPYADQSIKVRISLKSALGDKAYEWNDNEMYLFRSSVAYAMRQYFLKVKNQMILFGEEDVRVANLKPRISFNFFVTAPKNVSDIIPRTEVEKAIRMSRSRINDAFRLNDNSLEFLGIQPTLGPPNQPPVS

[7] = tested on: rhinovirus strain RV2 (minor strain); experiment: Rhinovirus RV2 infection of Hela cells, Trypan Blue cell death; assay type: cell-based; settings: 10 μM and 20 μM, added 10 min before or 60 min or 240 min after infection, 4 days
[8] = tested on: Hela cells; experiment: Effect of sphingosine alone on Hela cells, Trypan Blue cell death; settings: uninfected Hela cells; 10 μM or 20 μM
[9] = tested on: epithelial cells of the nose; experiment: Toxicity of intranasal sphingosine on nasal epithelial cells of mice, Trypan Blue; assay type: in vivo; settings: wild-type mice; 10 μL of 10 μM or 100 μM intranasal; 8 hours or 24 hours
Description: Sphingosine was applied into the nose of wild-type mice as in 3.2. 10 μL of a 10 μM or a 100 μM sphingosine (SPH) solution was administered into the nostrils of wild-type mice. Controls received the solvent, i.e. octylglucopyranoside at the same concentration used when sphingosine was applied, or were left untreated. Mice were anesthetized prior to application of sphingosine. Mice were sacrificed after 8 hours or 24 hours, the nasal bone was removed and incubated in Trypsin solution for 10 min to release and isolate epithelial cells. Cells were washed twice in H/S (20 mM HEPES, 132 mM NaCl, 5 mM KCl, 1 mM CaCl2), 0.7 mM MgCl2, 0.8 mM MgSO4, pH 7.4), stained with Trypan Blue (0.2% final concentration) and dead cells were counted in aliquots of 500 cells. Given is the percentage of dead cells±SD from 4 independent experiments each; *p<0.05, ANOVA.

[10] = tested on: rhinovirus 2 (RV2); experiment: RV2 infection of freshly isolated human epithelial cells, Hela cytotoxicity readout; assay type: cell-based; settings: 10 μM or 20 μM, 24 hrs
Description: as §1

[11] = tested on: pp-VSV-SARS-CoV-2 spike; assay type: cell-based; remark: listed apart in the source
[12] = tested on: human nasal epithelial cells; experiment: Toxicity on human nasal epithelial cells; settings: as per the Vero cell studies
[13] = biological target: T2, receptor-binding domain of spike protein / ACE2 (Homo sapiens, UniProt Q9BYF1); experiment: Binding of Fc-ACE2 to RBD-spike immobilized on Ni-agarose, western blot; settings: RBD immobilized on Ni2+-agarose; Fc-ACE2 with 1 μM or 2 μM sphingosine
T2 construct: purchased Abcam (Fc-ACE2); Sino Biologicals (RBD-spike) ab273687 (Fc-ACE2); MA FE2702B, #40150-R007 (as printed for RBD-spike)
T2 sequence (Q9BYF1 18-740): as above

CCCCCCCCCCCCC/C=C/[C@@H](O)[C@@H](N)CO [sphingosine, (2S,3R,4E)-2-amino-4-octadecene-1,3-diol]
propagation of LCMV (infectious LCMV particles in the supernatant) [1]: reduced propagation of LCMV; also recorded: inhibits the propagation of LCMV
effect on infection of Vero epithelial cells with pp-VSV-SARS-CoV-2 [2]: marked effect
infection of Vero cells by SARS-CoV-2 [2]: prevents infection of Vero cells by SARS-CoV-2
reduction of the infection of Vero epithelial cells with pp-VSV-SARS-CoV-2 [2]: more than 90%
binding of pp-VSV-SARS-CoV-2 to the cell surface [3]: prevented binding of pp-VSV-SARS-CoV-2 to the cell surface
infection of human epithelial cells by RV14 [4]: abrogates infection of human epithelial cells; also recorded: prevents infection of freshly isolated human nasal epithelial cells
sphingosine concentration on the nasal epithelial cell surface / in the mucosa [5]: dose-dependent accumulation of sphingosine in the mucosa; also recorded: dose dependent increase in the local sphingosine concentration in the nasal mucosa
binding of recombinant receptor binding domain of spike S1 to ACE2 ([6]; immobilized Fc-ACE2 pre-incubated with 1 μM or 2 μM sphingosine): prevented binding of recombinant receptor binding domain of spike S1 to ACE2
binding of the recombinant RBD of spike S1 to ACE2 ([6]; immobilized Fc-ACE2 pre-incubated with 2 μM sphingosine): reduced binding of the recombinant RBD of spike S1 to ACE2
infection with RV2 (percentage of dead cells) [7]: prevented the infection; also recorded: prevention of RSV2 and RSV14 infection
effect of sphingosine itself on the cells (percentage of dead cells) [8]: no effect on the cells
toxic effects on nasal epithelial cells (percentage of dead cells) [9]: no toxic effects on epithelial cells of the nose; also recorded: no toxic side effects
infection of human epithelial cells by RV2 [10]: abrogates infection of human epithelial cells; also recorded: prevents infection of freshly isolated human nasal epithelial cells
infection of human nasal epithelial cells with pp-VSV-SARS-CoV-2 spike (eGFP positive cells) [11]: prevented infection; also recorded: prevents infection of freshly isolated human nasal endothelial cells by SARS-CoV-2
toxic effects on nasal epithelial cells [12]: no toxic effects on nasal epithelial cells; also recorded: without negative effects on the cells
interaction of the receptor-binding domain of spike protein with ACE2 [13]: abolished the interaction of the receptor-binding domain of spike protein with ACE2
